In patent EP0180309B2, “Improved disinfecting and preserving solutions for contact lenses and methods of use” (priority 1984, dated 1986):

System: L-929 mouse fibroblast cells
Type: cell-based
Settings: 10 ppm
Procedure: Comparative studies are conducted to evaluate the cytotoxicity of individual aqueous lens disinfecting and preservative solutions containing PHMB, benzalkonium chloride and chlorhexidine. The studies utilize the Agar Overlay Assay Technique published in the Journal of Pharmaceutical Sciences, Vol. 54 (1965) pp 1545-1547 by W. L. Guess et al. The technique utilized is similar to the Zone of Inhibition Method of Otten et al (Example VII), however, when the lenses are removed from the preservative solutions they are only rinsed with isotonic saline solution to remove residual preservative. The lenses are then placed on L-929 mouse fibroblast cells to ascertain the presence of any cytotoxic response or cell inflammation which is noted by a lysing of the cells.

Percent Cells Lysed: 0/0
Width of Decolorized Zone: 0/0
Structure (SMILES): [H]/N=C(\N/C(=N/[H])NCCCCCCNC(=N)NC(=N)Nc1ccc(Cl)cc1)Nc1ccc(Cl)cc1 [Chlorhexidine, chlorhexidine gluconate]
